Earlier results, collected in patent publication US20100062042A1, “Methods, Systems and Devices for Administration of Chlorine Dioxide” (priority 2008, published 2010).

Assays:
[1] = tested on: methicillin-resistant Staphylococcus aureus (MRSA); settings: see U.S. Application No. 61/150,685
[2] = tested on: Pseudomonas aeruginosa (P. aeruginosa); settings: see U.S. Application No. 61/150,685
[3] = particularly in chilled water

Structure (SMILES): [O][Cl+][O-] [chlorine dioxide, Chlorine dioxide]
- Effectiveness against MRSA [1]: effective
- Effectiveness against P. aeruginosa [2]: effective
- Solubility in water [3]: high solubility in water
